Laboratory results from patent EP2308883A1, “New derivatives of thieno[2,3-b]pyridine and 5,6,7,8 tetrahydrothieno[2,3 b]quinoline in particular useful in the treatment of malaria” (priority 2009, dated 2011).
Like-named read-outs stand apart in the source and are kept apart here.

Columns and labels:
[1] = molecular target: T1, GSK-3 (Cryptosporidium parvum, UniProt A3FQN0); test: Species specificity: recombinant tagged GSK-3 orthologue kinase assay; assay type: biochemical
T1 sequence (A3FQN0 1-433): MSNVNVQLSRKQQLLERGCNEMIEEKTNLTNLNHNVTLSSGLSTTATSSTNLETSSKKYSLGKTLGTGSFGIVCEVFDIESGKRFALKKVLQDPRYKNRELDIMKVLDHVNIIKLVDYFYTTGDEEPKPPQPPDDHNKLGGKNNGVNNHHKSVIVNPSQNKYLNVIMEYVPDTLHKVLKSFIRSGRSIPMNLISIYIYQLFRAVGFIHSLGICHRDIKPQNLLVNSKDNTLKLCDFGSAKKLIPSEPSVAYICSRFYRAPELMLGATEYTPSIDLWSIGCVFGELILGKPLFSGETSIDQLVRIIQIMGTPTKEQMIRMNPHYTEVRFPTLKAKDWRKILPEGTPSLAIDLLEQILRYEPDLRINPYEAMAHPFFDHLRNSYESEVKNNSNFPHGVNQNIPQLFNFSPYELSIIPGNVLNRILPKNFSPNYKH

[2] = molecular target: T2, GSK-3 (Trypanosoma cruzi, UniProt Q4E1X0); test: as above; assay type: biochemical
T2 sequence (Q4E1X0 1-353): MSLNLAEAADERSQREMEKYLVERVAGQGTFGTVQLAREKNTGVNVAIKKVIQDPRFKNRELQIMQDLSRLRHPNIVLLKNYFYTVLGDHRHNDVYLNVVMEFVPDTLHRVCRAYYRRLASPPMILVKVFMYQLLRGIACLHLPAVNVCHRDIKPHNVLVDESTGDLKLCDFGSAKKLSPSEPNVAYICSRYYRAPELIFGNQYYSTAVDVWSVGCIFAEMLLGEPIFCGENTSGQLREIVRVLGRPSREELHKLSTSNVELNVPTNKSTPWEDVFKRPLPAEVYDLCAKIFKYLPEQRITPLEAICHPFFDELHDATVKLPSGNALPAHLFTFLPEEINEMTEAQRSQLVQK

[3] = molecular target: T3, GSK-3 (Leishmania donovani, UniProt A6N857); test: as above; assay type: biochemical
T3 sequence (A6N857 1-355): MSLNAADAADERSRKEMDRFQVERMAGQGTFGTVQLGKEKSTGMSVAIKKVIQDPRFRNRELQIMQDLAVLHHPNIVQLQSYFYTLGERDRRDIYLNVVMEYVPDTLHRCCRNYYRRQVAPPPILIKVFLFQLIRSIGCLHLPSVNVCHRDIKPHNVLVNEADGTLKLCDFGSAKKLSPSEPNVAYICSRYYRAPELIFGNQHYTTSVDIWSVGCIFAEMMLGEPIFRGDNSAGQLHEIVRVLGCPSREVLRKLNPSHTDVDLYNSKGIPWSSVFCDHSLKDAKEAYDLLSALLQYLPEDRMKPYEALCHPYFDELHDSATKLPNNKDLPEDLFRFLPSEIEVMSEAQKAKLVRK

[4] = molecular target: T4, GSK-3 (Leishmania major, UniProt Q4QE15); test: as above; assay type: biochemical, Leishmania majo
T4 construct: made in house
T4 sequence (Q4QE15 entry or part of it): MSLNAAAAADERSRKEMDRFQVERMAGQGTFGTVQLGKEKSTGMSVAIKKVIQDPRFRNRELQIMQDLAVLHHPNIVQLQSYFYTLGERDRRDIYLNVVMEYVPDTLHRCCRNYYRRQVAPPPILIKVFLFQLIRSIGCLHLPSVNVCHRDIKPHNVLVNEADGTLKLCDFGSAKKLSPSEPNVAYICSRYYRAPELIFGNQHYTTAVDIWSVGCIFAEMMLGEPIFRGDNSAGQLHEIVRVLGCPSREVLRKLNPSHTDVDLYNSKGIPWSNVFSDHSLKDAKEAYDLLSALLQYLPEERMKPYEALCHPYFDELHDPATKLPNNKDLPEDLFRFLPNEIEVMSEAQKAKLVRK
From the text: Given the strong conservation of GSK-3 across evolution and the surprising selectivity of the compounds according to the present invention towards PfGSK-3 versus mammalian GSK-3, a selection of 12 GSK-3 orthologues of various species chosen on the "tree of life" analyzed. The species belong to the Apicomplexa (P. falciparum, P. vivax, P. knowlesi and P. berghei (Gardner, M.J. et al. Genome sequence of the human malaria parasite Plasmodium falciparum. Nature 419, 498-511 (2002); Carlton, J.M. et al. Comparative genomics of the neglected human malaria parasite Plasmodium vivax. Nature 455, 799-803 (2008); Pain, A. et al. The genome of the simian and human malaria parasite Plasmodium knowlesi. Nature 455, 799-803 (2008).). Toxoplasma gondii (Qin, C.L., Tang, J. and Kim, K. Cloning and in vitro expression of TPK3, a Toxoplasma gondii homologue of shaggy/glycogen synthase kinase-3 kinases. Mol. Biochem. Parasitol. 93, 273-283 (1998)), Cryptosporidium parvum.
Following PCR amplification from cDNA libraries or direct synthesis based on databases sequences, the GSK-3 genes were inserted in appropriate expression vectors and recombinant, tagged kinases were expressed, affinity purified and assayed in the presence of up to 10-100µM of each compound of formula (I) according to the present invention and a selection of the PfGSK-3 inhibitors.

[5] = molecular target: Mammalian GSK-3 (GSK-3α/β); test: Kinase assay with native porcine GSK3 purified from porcine brain, GS-1 peptide and [γ-33P] ATP; assay type: biochemical; conditions: for anti-mammalian GSK-3 IC50 values: result in words
Procedure: Porcine GSK3 (GSK-3α/β) was purified from porcine brain by affinity chromatography on immobilized axin according to the protocol described in Primot et al (Protein Expression and Purification 20, 394-404, 2000).
Both porcine GSK3 and PfGSK3 were assayed with 40 µM GS-1 peptide, a specific GSK-3 substrate, ([…]pEDEEE, synthesized by the Peptide Synthesis Unit, Institute of Biomolecular Sciences, University of Southampton, U.K.), in buffer A (25 mM Tris-HCl pH 7.5, 10 mM MgC12, 1 mM EGTA, 1 mM DTT, 50 µg heparin/ml, 0.5 mg BSA/ml) in the presence of 15 µM [γ-^33P] ATP (3000 Ci/mmol; 1 mCi/ml) in a final volume of 30 µl. After 30 min. incubation at 30°C, 25 µl aliquots of supernatant were spotted onto 2.5 x 3 cm pieces of Whatman P81 phosphocellulose paper, and, 20 sec. later, the filters were washed five times (for at least 5 min. each time) in 1 % phosphoric acid. The wet filters were counted in the presence of 1 ml ACS (Amersham) scintillation fluid. The kinase activity was expressed in pmoles phosphate incorporated in GS-1 or in percentage of the maximal activity.

[6] = molecular target: T5, GSK-3 (Toxoplasma gondii, UniProt O44002); test: Species specificity: recombinant tagged GSK-3 orthologue kinase assay; assay type: biochemical, Toxaplasma grondii
T5 sequence (O44002 1-394): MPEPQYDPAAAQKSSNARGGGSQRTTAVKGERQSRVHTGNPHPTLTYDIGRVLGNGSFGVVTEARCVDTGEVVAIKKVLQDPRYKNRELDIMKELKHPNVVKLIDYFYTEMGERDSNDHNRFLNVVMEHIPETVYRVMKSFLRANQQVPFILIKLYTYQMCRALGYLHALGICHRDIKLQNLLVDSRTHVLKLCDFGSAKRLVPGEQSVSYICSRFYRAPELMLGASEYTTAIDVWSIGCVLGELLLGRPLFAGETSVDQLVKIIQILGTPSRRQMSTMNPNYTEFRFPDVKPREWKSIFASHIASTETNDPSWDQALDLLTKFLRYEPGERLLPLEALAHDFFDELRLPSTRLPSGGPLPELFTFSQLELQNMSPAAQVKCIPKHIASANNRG

[7] = read-out: IC50 Trypanopsoma cruzi; calculated from dose-response curves; -(100) taken as no inhibition at 100
[8] = read-out: IC50 Leishmania donovani; calculated from dose-response curves
[9] = calculated from dose-response curves, -(100) taken as no inhibition at 100, read-out: IC50 Cryptosporidium parvum
[10] = calculated from dose-response curves; -(100) taken as no inhibition at 100; read-out: IC50 Trypanopsoma cruzi
[11] = calculated from dose-response curves; read-out: IC50 Leishmania donovani
[12] = calculated from dose-response curves, -(100) taken as no inhibition at 100, read-out: IC50 Toxaplasma grondii
[13] = -(10) taken as no inhibition at 10, read-out: IC50 Mammalian GSK-3

SMILES	IC50 [1] [µM]	IC50 [2, 7] [µM]	IC50 [3, 8] [µM]	IC50 [4] [µM]	anti-mammalian GSK-3 IC50 values [5]	IC50 [6] [µM]	IC50 [1, 9] [µM]	IC50 [2, 10] [µM]	IC50 [3, 11] [µM]	IC50 [6, 12] [µM]	IC50 [5, 13] [µM]	IC50 ([5]; read-out: mammalian GSK-3α/β IC50) [µM]
COc1ccccc1-c1c(C#N)c(N)nc2sc(C(=O)c3ccccc3)c(N)c12 [Compound 2, 3,6-diamino-2-benzoyl-4-(2-methoxyphenyl)thieno[2,3-b]pyridine-5-carbonitrile]	> 100	> 100	80	> 100	do not demonstrate good	> 100						
N#Cc1c(N)nc2sc(C(=O)c3cccc(Cl)c3)c(N)c2c1-c1ccccc1Br [Compound 20, 3,6-diamino-4-(2-bromophenyl)-2-(3-chlorobenzoyl)thieno[2,3-b]pyridine-5-carbonitrile]				> 100	do not demonstrate good		> 100	> 100	44	> 100		
N#Cc1c(N)nc2sc(C(=O)c3cccc(Cl)c3)c(N)c2c1-c1ccccc1I [Compound 14, 3,6-diamino-2-(3-chlorobenzoyl)-4-(2-iodophenyl)thieno[2,3-b]pyridine-5-carbonitrile]				> 100	do not demonstrate good		> 100	> 100	70	> 100		
N#Cc1c(N)nc2sc(C(=O)c3cccc(Cl)c3)c(N)c2c1-c1ccccc1Cl [Compound 22, 3,6-diamino-2-(3-chlorobenzoyl)-4-(2-chlorophenyl)thieno[2,3-b]pyridine-5-carbonitrile]	> 100	> 100	72	> 100	do not demonstrate good	> 100					> 10	> 10
N#Cc1cccc(C(=O)c2sc3nc(N)c(C#N)c(-c4ccccc4Cl)c3c2N)c1 [Compound 26, 3,6-diamino-4-(2-chlorophenyl)-2-(3-cyanobenzoyl)thieno[2,3-b]pyridine-5-carbonitrile]				> 100	do not demonstrate good		> 100	> 100	100	> 100	> 10	
